Earlier results as cited in patent US20070116643A1, “Novel aryloxypropanamines” (Concert Pharmaceuticals Inc., priority 2005, published 2007).
Where a name gives a salt, the structure may show the parent alone.

Legend:
[1] = tested on: 5-HT reuptake; conditions: in humans
[2] = tested on: central monoamine receptors
[3] = tested on: 5-HT reuptake; conditions: rodent models
[4] = tested on: NE reuptake; conditions: in humans

In the case of `CNCC[C@H](Oc1cccc2ccccc12)c1cccs1` [Compound A, (S)-N-methyl-3-(naphthalen-1-yloxy)-3-(thiophen-2-yl)propan-1-amine hydrochloride], the “inhibition of 5-HT reuptake” value [1] is given as “recapitulates the preclinically observed inhibition of 5-HT and NE reuptake”, the “affinity for central monoamine receptors” value [2] is given as “lacks affinity for central monoamine receptors” and the “inhibition of neural cell firing / 5-HT reuptake” value [3] is given as “inhibiting neural cell firing by reducing reuptake of 5-HT”. The “circulating radioactivity attributable to parent drug, AUC basis” value (humans, radiolabeled Compound A) was “approximately 3%”, the extent of metabolism (oral administration to humans, predominantly oxidative mechanisms) was “rapidly and extensively metabolized” and the “inhibition of NE reuptake” value [4] was “recapitulates the preclinically observed inhibition of 5-HT and NE reuptake”.
